Results reported in US20050176826A1, “Use of asc-1 inhibitors to treat neurological and psychiatric disorders” (H. Lundbeck A/S, priority 2002, published 2005).

Columns and labels:
NMDA receptor = NMDA receptor (Homo sapiens, UniProt Q05586); details: versus glycine; cited from earlier work
human asc-1 = biological target: T1, human asc-1 (Homo sapiens, UniProt Q9NS82); test: [3H]D-serine uptake into HEK293 cells expressing human asc-1; format: cell-based; details: for inhibition of [3H]D-serine uptake (in words): HEK293 cells expressing the cloned asc-1
T1 construct: expressed in transfected cells; host or cells: HEK293 (ATCC CRL 1573), transient, vector pCI/neo
T1 sequence (Q9NS82 1-523): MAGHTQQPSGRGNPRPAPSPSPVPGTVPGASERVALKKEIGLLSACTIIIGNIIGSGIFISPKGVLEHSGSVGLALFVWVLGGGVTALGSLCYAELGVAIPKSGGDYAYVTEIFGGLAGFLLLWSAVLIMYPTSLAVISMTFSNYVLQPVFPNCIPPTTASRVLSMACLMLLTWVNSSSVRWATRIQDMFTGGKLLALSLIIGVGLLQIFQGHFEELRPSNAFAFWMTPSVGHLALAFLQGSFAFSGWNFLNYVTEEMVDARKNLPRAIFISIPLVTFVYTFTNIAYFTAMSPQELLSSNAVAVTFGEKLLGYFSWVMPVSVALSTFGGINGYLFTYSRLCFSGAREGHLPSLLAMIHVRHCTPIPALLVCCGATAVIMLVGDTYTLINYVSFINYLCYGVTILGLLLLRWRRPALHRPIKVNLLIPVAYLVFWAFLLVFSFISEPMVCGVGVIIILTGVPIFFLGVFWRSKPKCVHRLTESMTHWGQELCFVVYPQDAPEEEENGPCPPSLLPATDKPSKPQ
Method: Uptake was determined 2-4 days after the transfection.
(§1) Into cortical membranes: Cortex from male Wistar rats (150-200 g) was homogenized in 0.40 M sucrose and centrifuged at 1000×g for 10 min. […] Test compounds and tissue (1 mg orig. tissue/well) were added to 96 well plates and incubated with [^3H]-D-serine (specific activity=26.8 Ci/mmol, PerkinElmer, Cambridge, U.K.) (100 nM final concentration) for 5 min at 25° C. Samples were filtered on Unifilter GF/B glass fiber (Packard Biosciences, Meriden, Conn., USA) and washed with 3×0.25 mL assay buffer. Measurements of [^3H]-D-serine uptake into whole HEK293 cells expressing human asc-1 were performed in 96 well plates with similar conditions except that the cells were incubated for 15 min with radioligand and washed by dipping twice in cold assay buffer following incubation with radioligand. Accumulated radioactivity was extracted from the cells by adding 200 μL scintillation fluid/well (Ultima Gold, Packard Biosciences) and the plates were counted in a Microplates Scintillation Counter (Packard Biosciences). The D-serine uptake in samples containing test compounds was compared to controls without added compound or controls where transport via the asc-1 was inhibited by addition of e.g. 30 mM L-alanine.

[1] = biological target: T2, D-serine-sensitive Na+-independent transporter in rat cortical membranes (Rattus norvegicus, UniProt P63116); test: Na+-independent [3H]D-serine uptake into rat cortical membranes (synaptosomes); format: biochemical; details: for inhibition of [3H]D-serine uptake (in words): rat cortical synaptosomes
T2 construct: from tissue; host or cells: rat cerebral cortex membranes (P2 synaptosomes), male Wistar rats
T2 sequence (P63116 1-530): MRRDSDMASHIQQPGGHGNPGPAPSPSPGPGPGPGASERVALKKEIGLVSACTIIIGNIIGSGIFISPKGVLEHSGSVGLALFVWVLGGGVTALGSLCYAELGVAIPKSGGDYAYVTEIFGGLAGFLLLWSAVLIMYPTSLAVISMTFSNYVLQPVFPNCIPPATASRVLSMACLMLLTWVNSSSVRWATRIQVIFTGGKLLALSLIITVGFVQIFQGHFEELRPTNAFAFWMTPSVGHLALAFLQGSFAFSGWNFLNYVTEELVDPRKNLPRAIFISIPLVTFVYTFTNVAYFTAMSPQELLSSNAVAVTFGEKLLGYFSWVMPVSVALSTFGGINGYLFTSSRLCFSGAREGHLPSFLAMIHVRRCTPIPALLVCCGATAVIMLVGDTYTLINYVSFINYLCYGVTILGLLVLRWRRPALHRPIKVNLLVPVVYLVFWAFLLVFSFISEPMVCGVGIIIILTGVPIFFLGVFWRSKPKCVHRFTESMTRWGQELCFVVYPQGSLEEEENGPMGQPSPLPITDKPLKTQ
T2 sequence (Q794F9 1-527 partner): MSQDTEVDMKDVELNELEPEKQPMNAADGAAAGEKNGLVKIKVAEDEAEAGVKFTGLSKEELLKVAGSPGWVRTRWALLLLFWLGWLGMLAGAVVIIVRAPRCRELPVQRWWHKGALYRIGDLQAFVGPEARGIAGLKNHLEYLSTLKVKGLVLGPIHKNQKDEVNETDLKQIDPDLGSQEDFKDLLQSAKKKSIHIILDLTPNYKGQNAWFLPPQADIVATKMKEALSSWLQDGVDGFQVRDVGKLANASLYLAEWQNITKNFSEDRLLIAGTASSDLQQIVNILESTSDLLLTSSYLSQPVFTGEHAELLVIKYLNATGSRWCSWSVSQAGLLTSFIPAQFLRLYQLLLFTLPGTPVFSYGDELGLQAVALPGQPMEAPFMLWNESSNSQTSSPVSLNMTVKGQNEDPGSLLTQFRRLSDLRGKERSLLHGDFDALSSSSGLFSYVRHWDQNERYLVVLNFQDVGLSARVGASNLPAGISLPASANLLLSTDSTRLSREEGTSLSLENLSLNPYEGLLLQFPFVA
Method: as §1

Row | SMILES | co-agonist potency relative to glycine at the allosteric site on the NMDA receptor (NMDA receptor) | block of uptake via the asc system, including asc-1 (human asc-1; 30 mM) | inhibition of [3H]D-serine uptake (in words) (human asc-1) | block of [3H]D-serine uptake into rat cortical membranes ([1]; rat cortical membranes) | inhibition of [3H]D-serine uptake (in words) [1]
1 | N[C@H](CO)C(=O)O [D-serine] | 3-4 fold |  |  |  | 
2 | C[C@H](N)C(=O)O [L-alanine] |  | completely block | effective inhibition | completely blocks | effective inhibition
3 | N=C(N)NCCC[C@H](N)C(=O)O [L-arginine] |  |  | Inactive |  | Inactive
4 | NC(=O)C[C@H](N)C(=O)O [L-asparagine] |  |  | Less effective, but significant inhibition |  | Less effective, but significant inhibition
5 | N[C@@H](CC(=O)O)C(=O)O [L-aspartate] |  |  | Inactive |  | Inactive
6 | N[C@@H](CS)C(=O)O [L-cysteine] |  |  | effective inhibition |  | effective inhibition
7 | N[C@@H](CSSC[C@H](N)C(=O)O)C(=O)O [L-cystine] |  |  | Inactive |  | Inactive
8 | N[C@@H](CCC(=O)O)C(=O)O [L-glutamate] |  |  | Inactive |  | Inactive
9 | NC(=O)CC[C@H](N)C(=O)O [L-glutamine] |  |  | Inactive |  | Inactive
10 | NCC(=O)O [L-glycine] |  |  | effective inhibition |  | effective inhibition
11 | N[C@@H](Cc1c[nH]cn1)C(=O)O [L-histidine] |  |  | Less effective, but significant inhibition |  | Less effective, but significant inhibition
12 | CC[C@H](C)[C@H](N)C(=O)O [L-isoleucine] |  |  | Less effective, but significant inhibition |  | Less effective, but significant inhibition
13 | CC(C)C[C@H](N)C(=O)O [L-leucine] |  |  | Less effective, but significant inhibition |  | Less effective, but significant inhibition
14 | NCCCC[C@H](N)C(=O)O [L-lysine] |  |  | Inactive |  | Inactive
15 | CSCC[C@H](N)C(=O)O [L-methionine] |  |  | Less effective, but significant inhibition |  | Less effective, but significant inhibition
16 | N[C@@H](Cc1ccccc1)C(=O)O [L-phenylalanine] |  |  | Less effective, but significant inhibition |  | Less effective, but significant inhibition
17 | O=C(O)[C@@H]1CCCN1 [L-proline] |  |  | Inactive |  | Inactive
18 | N[C@@H](CO)C(=O)O [L-serine] |  |  | effective inhibition |  | effective inhibition
19 | C[C@@H](O)[C@H](N)C(=O)O [L-threonine] |  |  | effective inhibition |  | effective inhibition
20 | N[C@@H](Cc1ccc(O)cc1)C(=O)O [L-tyrosine] |  |  | Less effective, but significant inhibition |  | Less effective, but significant inhibition
21 | CC(C)[C@H](N)C(=O)O [L-valine] |  |  | Less effective, but significant inhibition |  | Less effective, but significant inhibition
